Assays:
[1] = biological target: T1, Avi-KRAS WT (2-169) GTP/RAF1 RBD-3xFLAG (51-131) (Homo sapiens, UniProt P01116); assay: Raf1-KRAS WT-GTP disruption HTRF assay (Biological Example 3); type: binding
T1 construct: Avi-KRAS WT (2-169)
How it was run: (§1)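 Each KRAS-GTP/RAF1 RBD complex at 50 nM, with 75 nM 3xFLAG-RAF1 RBD (51-131)-Avi, in 50 mM Tris pH 7.5, 100 mM NaCl, 5 mM MgCl2, 0.1% BSA, 0.01% Tween 20, 10% DMSO. Compounds titrated from 30 μM, 10-point 3x series; 1 h at room temperature with shaking. HTRF read, activity as percent of DMSO.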

GP2d cells (KRAS G12D) = assay: Cell-based pERK HTRF assay in GP2d cell (Biological Example 2); conditions: GP2d
How it was run: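 Cells grown in DMEM with 10% FBS were exposed to compound for 60 min at 0.25% DMSO, using a 9-point half-log series starting at 1 μM or 100 nM. Lysates were then mixed with d2 and Eu cryptate antibodies for 4–24 h at room temperature, and pERK was read by HTRF.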

[2] = biological target: T2, Avi-KRAS G12C (2-169) GTP/RAF1 RBD-3xFLAG (51-131) (Homo sapiens, UniProt P01116, G12C); assay: Raf1-KRAS G12C-GTP disruption HTRF assay (Biological Example 3); type: binding
T2 construct: Avi-KRAS G12C (2-169)
T2 sequence (P01116 2-169 isoform P01116-2 G12C): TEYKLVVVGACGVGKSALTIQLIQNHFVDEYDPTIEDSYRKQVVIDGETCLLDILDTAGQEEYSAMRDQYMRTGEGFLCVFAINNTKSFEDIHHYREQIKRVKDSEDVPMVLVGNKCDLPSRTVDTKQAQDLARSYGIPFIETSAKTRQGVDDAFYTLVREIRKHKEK
How it was run: as §1

[3] = biological target: T3, Avi-KRAS G12V (2-169) GTP/RAF1 RBD-3xFLAG (51-131) (Homo sapiens, UniProt P01116, G12V); assay: Raf1-KRAS G12V-GTP disruption HTRF assay (Biological Example 3); type: binding
T3 construct: Avi-KRAS G12V (2-169)
T3 sequence (P01116 2-169 isoform P01116-2 G12V): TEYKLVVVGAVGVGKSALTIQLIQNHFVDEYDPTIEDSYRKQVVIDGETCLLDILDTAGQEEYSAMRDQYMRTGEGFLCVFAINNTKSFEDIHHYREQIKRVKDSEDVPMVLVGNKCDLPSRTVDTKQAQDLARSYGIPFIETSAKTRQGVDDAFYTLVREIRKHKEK
How it was run: as §1

SW620 cells (KRAS G12V) = assay: Cell-based pERK HTRF assay in SW620 cell (Biological Example 4); conditions: Homo sapiens
How it was run: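 SW620 cells were treated for 4 h with compound in a 9-point half-log series from 1 μM top (0.25% DMSO), then lysed. Phospho-ERK was detected by HTRF with d2 and Eu cryptate antibodies after 4–24 h at room temperature, read at 615 nm emission.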

[4] = biological target: T4, Avi-KRAS G12D (2-169) GTP/RAF1 RBD-3xFLAG (51-131) (Homo sapiens, UniProt P01116, G12D); assay: Raf1-KRAS G12D-GTP disruption HTRF assay (Biological Example 3); type: binding
T4 construct: Avi-KRAS G12D (2-169)
T4 sequence (P01116 2-169 isoform P01116-2 G12D): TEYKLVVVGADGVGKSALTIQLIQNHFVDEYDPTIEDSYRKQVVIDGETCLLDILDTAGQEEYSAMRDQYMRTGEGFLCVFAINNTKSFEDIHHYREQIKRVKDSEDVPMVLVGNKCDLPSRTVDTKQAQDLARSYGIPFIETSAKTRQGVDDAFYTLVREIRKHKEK
How it was run: as §1

[5] = SW-620, SW620 (KRAS G12V) cells
[6] = SW-620, SW620 cells (KRAS G12V)

T1 sequence (P01116 2-169 isoform P01116-2): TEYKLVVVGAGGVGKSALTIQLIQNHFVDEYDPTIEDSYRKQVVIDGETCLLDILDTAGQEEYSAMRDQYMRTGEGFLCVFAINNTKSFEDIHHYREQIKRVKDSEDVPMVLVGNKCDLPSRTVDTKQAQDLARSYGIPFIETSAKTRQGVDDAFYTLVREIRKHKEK

Row | SMILES | IC50 ([1]; KRAS WT, GTP-loaded) | IC50 (GP2d cells (KRAS G12D); GP2d (KRAS G12D) cells) | IC50 ([2]; KRAS G12C, GTP-loaded) | IC50 ([3]; KRAS G12V, GTP-loaded) | IC50 (SW620 cells (KRAS G12V); [5]) | IC50 ([4]; KRAS G12D, GTP-loaded) | IC50 ([1]; KRAS WT-GTP / RAF1 RBD HTRF) | IC50 (GP2d cells (KRAS G12D); GP2d cells (KRAS G12D)) | IC50 ([2]; KRAS G12C-GTP / RAF1 RBD HTRF) | IC50 ([3]; KRAS G12V-GTP / RAF1 RBD HTRF) | IC50 (SW620 cells (KRAS G12V); [6]) | IC50 ([4]; KRAS G12D-GTP / RAF1 RBD HTRF)
1 | CCN(c1nc(OC[C@@]23CCCN2C[C@H](F)C3)nc2c(F)c(-c3ccc(F)c4sc(N)c(C#N)c34)c(C(F)(F)F)cc12)[C@H]1CC[C@@H](C(=O)N(C)C)C1 (atropisomer, axis not shown) [Compound 661] | 0.1 to 1 µM | < 0.1 µM | 1 to 10 µM | 1 to 10 µM | < 0.1 µM | 0.1 to 1 µM | – | – | – | – | – | –
2 | CCN(c1nc(OC[C@@]23CCCN2C[C@H](F)C3)nc2c(F)c(-c3ccc(F)c4sc(N)c(C#N)c34)c(C(F)(F)F)cc12)[C@H]1C[C@H]2[C@H](C)OC(=O)N2C1 (atropisomer, axis not shown) [Compound 836] | 0.1 to 1 µM | < 0.1 µM | 0.1 to 1 µM | 0.1 to 1 µM | < 0.1 µM | 0.1 to 1 µM | – | – | – | – | – | –
3 | CCN(c1nc(OC[C@@]23CCCN2C[C@H](F)C3)nc2c(F)c(-c3ccc(F)c4sc(N)c(C#N)c34)c(C(F)(F)F)cc12)[C@H]1CCN(c2nccs2)C1 [Compound 973] | – | – | – | – | – | – | 1 to 10 µM | < 0.1 µM | 0.1 to 1 µM | 0.1 to 1 µM | < 0.1 µM | 0.1 to 1 µM
4 | CO[C@H](C)C(=O)N1CC[C@H](N(c2nc(OC[C@@]34CCCN3C[C@H](F)C4)nc3c(F)c(-c4ccc(F)c5sc(N)c(C#N)c45)c(C(F)(F)F)cc23)C2CC2)C1 (atropisomer, axis not shown) [Compound 826] | 1 to 10 µM | < 0.1 µM | 1 to 10 µM | 1 to 10 µM | < 0.1 µM | 0.1 to 1 µM | – | – | – | – | – | –
5 | CN(C)C(=O)N1CC[C@H](N(CCF)c2nc(OC[C@@]34CCCN3C[C@H](F)C4)nc3c(F)c(-c4ccc(F)c5sc(N)c(C#N)c45)c(C(F)(F)F)cc23)C1 (atropisomer, axis not shown) [Compound 828] | 1 to 10 µM | < 0.1 µM | 0.1 to 1 µM | 0.1 to 1 µM | 0.1 to 1 µM | 0.1 to 1 µM | – | – | – | – | – | –
6 | CCN(c1nc(OC[C@@]23CCCN2C[C@H](F)C3)nc2c(F)c(-c3ccc(F)c4sc(N)c(C#N)c34)c(C(F)(F)F)cc12)[C@H]1CCN(C(=O)c2cncs2)C1 (atropisomer, axis not shown; (aS)) [Compound 906, 2-amino-4-((S)-4-(ethyl((S)-1-(thiazole-5-carbonyl)pyrrolidin-3-yl)amino)-8-fluoro-2-(((2R,7aS)-2-fluorotetrahydro-1H-pyrrolizin-7a(5H)-yl)methoxy)-6-(trifluoromethyl)quinazolin-7-yl)-7-fluorobenzo[b]thiophene-3-carbonitrile] | 0.1 to 1 µM | < 0.1 µM | 0.1 to 1 µM | 0.1 to 1 µM | < 0.1 µM | 0.1 to 1 µM | – | – | – | – | – | –
7 | CCN(c1nc(OC[C@@]23CCCN2C[C@H](F)C3)nc2c(F)c(-c3ccc(F)c4sc(N)c(C#N)c34)c(C(F)(F)F)cc12)[C@H]1C[C@H](COC)N(C(=O)[C@@H]2CC2(F)F)C1 (atropisomer, axis not shown) [Compound 854] | 0.1 to 1 µM | < 0.1 µM | 0.1 to 1 µM | 0.1 to 1 µM | < 0.1 µM | 0.1 to 1 µM | – | – | – | – | – | –
8 | CN(Cc1cnco1)c1nc(OC[C@@]23CCCN2C[C@H](F)C3)nc2c(F)c(-c3ccc(F)c4sc(N)c(C#N)c34)c(C(F)(F)F)cc12 [Compound 908] | 1 to 10 µM | < 0.1 µM | 1 to 10 µM | 1 to 10 µM | < 0.1 µM | 0.1 to 1 µM | – | – | – | – | – | –
9 | CCN(c1nc(OC[C@@]23CCCN2C[C@H](F)C3)nc2c(F)c(-c3ccc(F)c4sc(N)c(C#N)c34)c(C(F)(F)F)cc12)[C@H]1CCN(C(=O)N2CC3(CCO3)C2)C1 (atropisomer, axis not shown) [Compound 851] | 0.1 to 1 µM | < 0.1 µM | 0.1 to 1 µM | 0.1 to 1 µM | < 0.1 µM | 0.1 to 1 µM | – | – | – | – | – | –
10 | C[C@H](c1cccnc1)N(C)c1nc(OC[C@@]23CCCN2C[C@H](F)C3)nc2c(F)c(-c3ccc(F)c4sc(N)c(C#N)c34)c(C(F)(F)F)cc12 (atropisomer, axis not shown; (aS)) [Compound 904, 2-amino-7-fluoro-4-((S)-8-fluoro-2-(((2R,7aS)-2-fluorotetrahydro-1H-pyrrolizin-7a(5H)-yl)methoxy)-4-(methyl((R)-1-(pyridin-3-yl)ethyl)amino)-6-(trifluoromethyl)quinazolin-7-yl)benzo[b]thiophene-3-carbonitrile] | 1 to 10 µM | < 0.1 µM | 1 to 10 µM | 1 to 10 µM | < 0.1 µM | 1 to 10 µM | – | – | – | – | – | –
11 | CCN(c1nc(OC[C@@]23CCCN2C[C@H](F)C3)nc2c(F)c(-c3ccc(F)c4sc(N)c(C#N)c34)c(C(F)(F)F)cc12)[C@H]1C[C@H](C)N(C(=O)OC2CC(OC)C2)C1 (stereo partly drawn) [Compound 907] | 0.1 to 1 µM | < 0.1 µM | 0.1 to 1 µM | 0.1 to 1 µM | < 0.1 µM | 0.1 to 1 µM | – | – | – | – | – | –
12 | CCN(c1nc(OC[C@@]23CCCN2C[C@H](F)C3)nc2c(F)c(-c3ccc(F)c4sc(N)c(C#N)c34)c(C(F)(F)F)cc12)[C@H]1CCN(C(=O)c2coc(C)n2)C1 (atropisomer, axis not shown) [Compound 832] | 0.1 to 1 µM | < 0.1 µM | ≤ 0.1 µM | ≤ 0.1 µM | < 0.1 µM | ≤ 0.1 µM | – | – | – | – | – | –
13 | CCN(c1nc(OC[C@@]23CCCN2C[C@H](F)C3)nc2c(F)c(-c3ccc(F)c4sc(N)c(C#N)c34)c(C(F)(F)F)cc12)[C@H]1CCN(C(=O)c2ccon2)[C@@H]1C [Compound 838] | 0.1 to 1 µM | < 0.1 µM | 0.1 to 1 µM | 0.1 to 1 µM | < 0.1 µM | 0.1 to 1 µM | – | – | – | – | – | –
14 | CN(Cc1ccon1)c1nc(OC[C@@]23CCCN2C[C@H](F)C3)nc2c(F)c(-c3ccc(F)c4sc(N)c(C#N)c34)c(C(F)(F)F)cc12 (atropisomer, axis not shown) [Compound 856] | 1 to 10 µM | < 0.1 µM | 1 to 10 µM | 0.1 to 1 µM | < 0.1 µM | 0.1 to 1 µM | – | – | – | – | – | –
15 | CCN(c1nc(OC[C@@]23CCCN2C[C@H](F)C3)nc2c(F)c(-c3ccc(F)c4sc(N)c(C#N)c34)c(C(F)(F)F)cc12)[C@H]1C[C@@H]2CCN(C)C(=O)N2C1 (atropisomer, axis not shown) [Compound 667] | 0.1 to 1 µM | < 0.1 µM | 0.1 to 1 µM | 0.1 to 1 µM | < 0.1 µM | 0.1 to 1 µM | – | – | – | – | – | –
16 | CN(c1nc(OC[C@@]23CCCN2C[C@H](F)C3)nc2c(F)c(-c3ccc(F)c4sc(N)c(C#N)c34)c(C(F)(F)F)cc12)[C@@H]1CCCc2ccncc21 (atropisomer, axis not shown) [Compound 972] | – | – | – | – | – | – | 0.1 to 1 µM | < 0.1 µM | 0.1 to 1 µM | 0.1 to 1 µM | < 0.1 µM | 0.1 to 1 µM
